In ChEMBL document CHEMBL3763113, “Discovery of spirocyclic proline tryptophan hydroxylase-1 inhibitors” (Bioorg Med Chem Lett, 2016):

Assays:
[1] = molecular target: T1, Tryptophan 5-hydroxylase 1 (Homo sapiens, UniProt P17752)
T1 sequence (P17752 whole entry): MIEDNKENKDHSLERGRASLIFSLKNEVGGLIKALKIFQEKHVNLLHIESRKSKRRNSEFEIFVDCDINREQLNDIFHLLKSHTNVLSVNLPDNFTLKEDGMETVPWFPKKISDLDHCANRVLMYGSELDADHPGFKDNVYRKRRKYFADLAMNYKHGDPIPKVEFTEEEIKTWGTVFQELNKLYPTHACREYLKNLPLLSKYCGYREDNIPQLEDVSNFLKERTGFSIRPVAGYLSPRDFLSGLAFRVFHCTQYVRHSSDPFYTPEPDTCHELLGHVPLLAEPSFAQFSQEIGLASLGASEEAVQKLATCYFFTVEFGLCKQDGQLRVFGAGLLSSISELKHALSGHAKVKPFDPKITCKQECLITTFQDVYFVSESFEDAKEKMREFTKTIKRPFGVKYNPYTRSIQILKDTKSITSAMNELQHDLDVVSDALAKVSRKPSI
Description: Inhibition of TPH1 (unknown origin)

Rattus norvegicus [2] = test: Decrease in 5-HT levels in rat platelet rich plasma at 30 mg/kg, po bid measured after 16 hrs relative to control; assay type: functional; design: scale not given: the % may be the effect or the level left
Rattus norvegicus [3] = test: Decrease in 5-HT levels in rat intestinal mucosa at 10 mg/kg, po qd measured after 16 hrs relative to control; assay type: functional; design: scale not given: the % may be the effect or the level left
[4] = Clearance in rat at 25 mg/kg, po and 1 mg/kg, iv; assay type: ADME, organism-based; details: in vivo
[5] = Half life in rat at 1 mg/kg, iv; assay type: ADME, organism-based; details: in vivo
[6] = Volume of distribution at steady state in rat at 1 mg/kg, iv; assay type: ADME, organism-based; details: in vivo, read-out: Vdss
[7] = Cmax in rat at 25 mg/kg, po; assay type: ADME, organism-based; design: dose 25 mg/kg, route oral; details: in vivo
[8] = AUC(0 to last) in rat at 25 mg/kg, po; assay type: ADME, organism-based; design: dose 25 mg/kg, time 0 - last, route oral; details: in vivo
Rattus norvegicus [9] = test: Half life in rat assessed as (S)-8-(2-amino-6-((R)-1-(4-chloro-2-(3-methyl-1H-pyrazol-1-yl)phenyl)-2,2,2-trifluoroethoxy)pyrimidin-4-yl)-2,8-diazaspiro[4.5]decane-3-carboxylic acid at 1 mg/kg, iv; assay type: ADME, organism-based; details: in vivo
Rattus norvegicus [10] = test: Cmax in rat assessed as (S)-8-(2-amino-6-((R)-1-(4-chloro-2-(3-methyl-1H-pyrazol-1-yl)phenyl)-2,2,2-trifluoroethoxy)pyrimidin-4-yl)-2,8-diazaspiro[4.5]decane-3-carboxylic acid at 25 mg/kg, po; assay type: ADME, organism-based; design: dose 25 mg/kg, route oral; details: in vivo
Rattus norvegicus [11] = test: AUC(0 to last) in rat assessed as (S)-8-(2-amino-6-((R)-1-(4-chloro-2-(3-methyl-1H-pyrazol-1-yl)phenyl)-2,2,2-trifluoroethoxy)pyrimidin-4-yl)-2,8-diazaspiro[4.5]decane-3-carboxylic acid at 25 mg/kg, po; assay type: ADME, organism-based; design: dose 25 mg/kg, route oral, time 0 - last; details: in vivo
Mus musculus [12] = test: Decrease in 5-HT levels in mouse at 50 mg/kg, po administered as single dose for 16 hrs; assay type: functional
Mus musculus [13] = test: Decrease in 5-HT levels in mouse at 10 mg/kg, po administered as single dose for 16 hrs; assay type: functional
Rattus norvegicus [14] = test: Decrease in 5-HT levels in rat platelet rich plasma at 10 mg/kg, po qd measured after 16 hrs relative to control; assay type: functional; design: scale not given: the % may be the effect or the level left
Rattus norvegicus [15] = test: Decrease in 5-HT levels in rat platelet rich plasma at 30 mg/kg, po qd measured after 16 hrs relative to control; assay type: functional; design: scale not given: the % may be the effect or the level left
Rattus norvegicus [16] = test: Decrease in 5-HT levels in rat intestinal mucosa at 30 mg/kg, po qd measured after 16 hrs relative to control; assay type: functional; design: scale not given: the % may be the effect or the level left
Rattus norvegicus [17] = test: Decrease in 5-HT levels in rat intestinal mucosa at 30 mg/kg, po bid measured after 16 hrs relative to control; assay type: functional; design: scale not given: the % may be the effect or the level left

Cc1ccn(-c2cc(Cl)ccc2[C@@H](Oc2cnc(N3CCC4(CC3)CNC(C(=O)O)C4)cn2)C(F)(F)F)n1 (stereo partly specified)
IC50 [1]: 3.42 µM

Cc1ccn(-c2cc(Cl)ccc2[C@@H](Oc2cnnc(N3CCC4(CC3)CNC(C(=O)O)C4)c2)C(F)(F)F)n1 (stereo partly specified)
IC50 [1]: 5.93 µM

CCOC(=O)[C@@H]1CC2(CCN(c3cc(O[C@H](c4ccc(Cl)cc4-n4ccc(C)n4)C(F)(F)F)nc(N)n3)CC2)CN1
Activity (Rattus norvegicus [2]): 72% | Activity (Rattus norvegicus [3]): 76% | clearance [4]: 178 mL/min/kg | half-life [5]: 24 min | Vd [6]: 3.1 L/kg | Cmax [7]: 249 ng/mL | AUC(0-t) [8]: 140 ng·h/mL | t1/2 (Rattus norvegicus [9]): 271 min | Cmax (Rattus norvegicus [10]): 2253 ng/mL | AUClast (Rattus norvegicus [11]): 2924 ng·h/mL | inhibition in vivo at 50 mg/kg (Mus musculus [12]): 56% | inhibition in vivo at 10 mg/kg (Mus musculus [13]): 32% | Activity (Rattus norvegicus [14]): 76% | Activity (Rattus norvegicus [15]): 71% | Activity (Rattus norvegicus [16]): 62% | Activity (Rattus norvegicus [17]): 38%

Cc1ccn(-c2cc(Cl)ccc2[C@@H](Oc2nc(N)nc(N3CCC4(CC3)CNC(C(=O)O)C4)n2)C(F)(F)F)n1 (stereo partly specified)
IC50 [1]: 2.27 µM

Cc1ccn(-c2cc(Cl)ccc2[C@@H](Oc2cncc(N3CCC4(CC3)CNC(C(=O)O)C4)n2)C(F)(F)F)n1 (stereo partly specified)
IC50 [1]: 20 µM

Cc1ccn(-c2cc(Cl)ccc2[C@@H](Oc2ccnc(N3CCC4(CC3)CNC(C(=O)O)C4)c2)C(F)(F)F)n1 (stereo partly specified)
IC50 [1]: 0.211 µM
